Drawing on ChEMBL document CHEMBL2390900, “The use of virtual screening and differential scanning fluorimetry for the rapid identification of fragments active against MEK1” (Bioorg Med Chem Lett, 2013), this text covers ΔTm, IC50 and RU for two molecules.

pIC50: −log10 of the molar value.

One may read the ΔTm as the change in melting temperature against a reference sample. For orientation: pIC50 means the IC50 on a negative log10 scale, so that one unit is a factor of ten.

For assay [1], the target named is T1, Dual specificity mitogen-activated protein kinase kinase 1 (Homo sapiens, UniProt Q02750).
Description: Binding affinity to MEK1 (unknown origin) assessed as fluorescence intensity every 0.2 degC at 500 uM at 20 degC to 90 degC by differential screening fluorimetry analysis
For assay [2], the target named is T1, Dual specificity mitogen-activated protein kinase kinase 1. The assay is described as follows: Inhibition of MEK1 (unknown origin) using ATP and ERK2 K54R as substrate after 60 to 80 mins by HTRF assay. A general note: TR-FRET usually uses a lanthanide donor and a delayed reading to cut background.
For assay [3] the target is unchanged. This is another data set of the same source.

T1 sequence (Q02750 whole entry): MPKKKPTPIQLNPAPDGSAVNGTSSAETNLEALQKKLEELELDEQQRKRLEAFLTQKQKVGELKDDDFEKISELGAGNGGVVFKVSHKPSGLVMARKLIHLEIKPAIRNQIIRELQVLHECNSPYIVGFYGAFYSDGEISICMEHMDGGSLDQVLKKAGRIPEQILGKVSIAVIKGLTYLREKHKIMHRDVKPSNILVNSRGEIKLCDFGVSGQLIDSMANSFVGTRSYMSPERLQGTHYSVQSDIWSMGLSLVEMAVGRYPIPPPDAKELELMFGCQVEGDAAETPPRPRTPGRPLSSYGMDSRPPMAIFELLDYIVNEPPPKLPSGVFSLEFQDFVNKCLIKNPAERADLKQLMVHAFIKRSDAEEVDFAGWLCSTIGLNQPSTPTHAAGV

Consider `CC1(O)CCN2C(=O)CCc3cccc1c32` (centres undefined), for which the shift in melting temperature (ΔTm) in assay [1] stood at 3.8 °C. Also, the pIC50 in assay [2] is 4.74.
With `O=c1[nH]ccc2cc(O[C@@H]3CCCNC3)c(Cl)cc12`, the ΔTm in assay [1] came to 0.2 °C. Also, the RU in assay [3] came out at 0.3.
